One assay relates to Mus musculus. Description: Inhibition of corneal neovascularization in C57 mouse dosed via implanted with pumps at 1 uL/hr for 7 days by fluorescence microscopy. Type of assay: functional, organism-based.
In assay [1] the test system is Rattus norvegicus. In words: Inhibition of oxygen-induced retinal angiogenesis in Sprague-Dawley rat dosed in right eye at stage at P9 and P11 during ischemic phase that follows oxygen exposure by epifluorescent microscopy. Type of assay: functional, organism-based.
Assay [2] has as its system Rattus norvegicus. In words: Inhibition of retinal angiogenesis in newborn Sprague-Dawley rat dosed intravitreally at P1 stage and P3 by epifluorescent microscopy. Format: functional, organism-based.
The test system of another assay is K562. Description: Inhibition of cell adhesion in human K562 cells at 0.5 uM pre-incubated for 30 mins before cell adhesion to fibronectin for 30 mins by crystal violet staining based assay. Format: functional.

Activity calls are given as the source filed them. The rule behind the calls is not given here.

As to `O=C(CO[C@@H]1C[C@@H](CNc2ccccn2)N(C(=O)OCc2ccccc2)C1)NC[C@H](NC(=O)C1CCCCC1)C(=O)O`, the inhibition entry in the assay on Mus musculus and in the assay with Rattus norvegicus [1] was “Active” in each case.
Turning to `COc1ccnc(NC[C@@H]2C[C@@H](OCC(=O)NC[C@H](NC(=O)C3(C)CCCCC3)C(=O)O)CN2C(=O)CC(C)(C)C)c1`, the inhibition result in the assay on Mus musculus and with Rattus norvegicus [1] was “Active” throughout.
`Cc1cc(C)c(S(=O)(=O)N[C@@H](CNC(=O)CO[C@@H]2C[C@@H](CNc3ccccn3)N(C(=O)NC3CCCC3)C2)C(=O)O)c(C)c1`: the inhibition result with Mus musculus and in the assay with Rattus norvegicus [1] was “Active” each time.
Take `COc1cccc(OC)c1C(=O)N[C@@H](CNC(=O)CO[C@@H]1C[C@@H](CNc2ccccn2)N(C(=O)OCc2ccccc2)C1)C(=O)O`: the inhibition result with Mus musculus and with Rattus norvegicus [1] was “Active” in each case.
Regarding `Cc1cc(C)c(S(=O)(=O)N[C@@H](CNC(=O)CO[C@@H]2C[C@@H](CNc3ccccn3)N(C(=O)OCc3ccccc3)C2)C(=O)O)c(C)c1`, the inhibition entry with Mus musculus, in the assay on Rattus norvegicus [1] and in the assay with Rattus norvegicus [2] was “Active” each time.
Consider `Cc1cc(C)c(S(=O)(=O)N[C@@H](CNC(=O)CO[C@@H]2C[C@@H](CNc3ccccn3)N(C(=O)CC(C)(C)C)C2)C(=O)O)c(C)c1`, for which the inhibition result with Mus musculus and in the assay on Rattus norvegicus [1] was “Active” in each case.
`Cc1cc(C)c(S(=O)(=O)N[C@@H](CNC(=O)CO[C@@H]2C[C@@H](CNc3ccccn3)N(C(=O)OCC(C)C)C2)C(=O)O)c(C)c1`: the inhibition result with Mus musculus and with Rattus norvegicus [1] was “Active” in each case.
As to `CCC(C)(C)C(=O)N[C@@H](CNC(=O)CO[C@@H]1C[C@@H](CNc2ccccn2)N(C(=O)OCc2ccccc2)C1)C(=O)O`, the inhibition result in the assay with Mus musculus and in the assay with Rattus norvegicus [1] was “Active” throughout.
`O=C(CO[C@@H]1C[C@@H](CNc2ccccn2)N(C(=O)OCc2ccccc2)C1)NC[C@H](NC(=O)c1ccccc1Cl)C(=O)O`: the inhibition result in the assay with Mus musculus and with Rattus norvegicus [1] was “Active” each time.
Turning to `Cc1cccc(C)c1C(=O)N[C@@H](CNC(=O)CO[C@@H]1C[C@@H](CNc2ccccn2)N(C(=O)OCc2ccccc2)C1)C(=O)O`, the inhibition entry with Mus musculus and in the assay with Rattus norvegicus [1] was “Active” throughout.
As to `CC(C)(C)C(=O)N[C@@H](CNC(=O)CO[C@@H]1C[C@@H](CNc2ccccn2)N(C(=O)OCc2ccccc2)C1)C(=O)O`, the inhibition result in the assay with Mus musculus and with Rattus norvegicus [1] was “Active” throughout.
Regarding `O=C(CO[C@@H]1C[C@@H](CNc2ccccn2)N(C(=O)OCc2ccccc2)C1)NC[C@H](NC(=O)c1ccccc1[N+](=O)[O-])C(=O)O`, the inhibition result in the assay on Mus musculus and in the assay on Rattus norvegicus [1] was “Active” each time.
In the case of `Cc1cc(C)c(C(=O)N[C@@H](CNC(=O)CO[C@@H]2C[C@@H](CNc3ccccn3)N(C(=O)OCc3ccccc3)C2)C(=O)O)c(C)c1`, the inhibition entry with Mus musculus, in the assay on Rattus norvegicus [1] and in the assay with K562 was “Active” each time.
Consider `C#CCOC(=O)N1C[C@H](OCC(=O)NC[C@H](NS(=O)(=O)c2c(C)cc(C)cc2C)C(=O)O)C[C@H]1CNc1ccccn1`, for which the inhibition result with Mus musculus and with Rattus norvegicus [1] was “Active” each time.

Source of the values: ChEMBL document CHEMBL4482316, “Compounds for the inhibition of angiogenesis and use thereof” (2013).
